Data published in ChEMBL document CHEMBL1121862, “Synthesis of 3-hydroxycyclophosphamide and studies related to its possible role in the metabolism of cyclophosphamide” (1981).

Experiments:
Mus musculus [1] = species: Mus musculus; test: animal or person; settings: ip
Mus musculus [2] = species: Mus musculus; test: animal or person; settings: ip; remark: listed apart in the source

O=P1(N(CCCl)CCCl)NCCCO1 (configuration not stated) [CYCLOPHOSPHAMIDE ANHYDROUS]
ILS at 100 mg/kg (Mus musculus [1]): > 100%
ILS at 200 mg/kg (Mus musculus [2]): > 150%
